Reference: ChEMBL document CHEMBL1201862, “PubChem BioAssay data set” (2004)
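In this assay, cells in 96-well plates receive the compound at five concentrations for 48 hours. Endpoints are linearly interpolated between the surrounding concentrations. Abbreviation: GI50, concentration required for 50% inhibition of growth.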 The source made the active and inactive calls. No stated cut-off is given here; in the data, active = GI50 up to about 1.1 µM and inactive = higher.

Assays:
Experiment in all cases: NCI tumour cell line growth inhibition, 48 h
786-0 = test system: 786-0
A498 = test system: A498
A549 = test system: A549
ACHN = test system: ACHN
CCRF-CEM = test system: CCRF-CEM
COLO 205 = test system: COLO 205
DMS-114 = test system: DMS-114
DMS-273 = test system: DMS-273
EKVX = test system: EKVX
HCT-116 = test system: HCT-116
HCT-15 = test system: HCT-15
HOP-18 = test system: HOP-18
HOP-92 = test system: HOP-92
HT-29 = test system: HT-29
IGROV-1 = test system: IGROV-1
K562 = test system: K562
KM-20L2 = test system: KM-20L2
KM12 = test system: KM12
LOX IMVI = test system: LOX IMVI
LXFL 529 = test system: LXFL 529
M14 = test system: M14
M19-MEL = test system: M19-MEL
MOLT-4 = test system: MOLT-4
Malme-3M = test system: Malme-3M
NCI-H226 = test system: NCI-H226
NCI-H23 = test system: NCI-H23
NCI-H460 = test system: NCI-H460
NCI-H522 = test system: NCI-H522
OVCAR-3 = test system: OVCAR-3
OVCAR-4 = test system: OVCAR-4
OVCAR-5 = test system: OVCAR-5
OVCAR-8 = test system: OVCAR-8
RPMI-8226 = test system: RPMI-8226
RXF 393 = test system: RXF 393
SF-268 = test system: SF-268
SF-295 = test system: SF-295
SF-539 = test system: SF-539
SK-MEL-28 = test system: SK-MEL-28
SK-MEL-2 = test system: SK-MEL-2
SK-OV-3 = test system: SK-OV-3
SN12C = test system: SN12C
SNB-19 = test system: SNB-19
SNB-75 = test system: SNB-75
SNB-78 = test system: SNB-78
SW-620 = test system: SW-620
TK-10 = test system: TK-10
U-251 = test system: U-251
UACC-257 = test system: UACC-257
UACC-62 = test system: UACC-62
UO-31 = test system: UO-31
XF498 = test system: XF498

## C[C@@H]1OC(=O)N2CCCC(=C3SCCCS3)C12 (stereo partly specified)
786-0
  GI50: > 100 µM (inactive)
A498
  GI50: > 100 µM (inactive)
A549
  GI50: 78.5 µM (inactive)
ACHN
  GI50: 93.5 µM (inactive)
CCRF-CEM
  GI50: 46.6 µM (inactive)
COLO 205
  GI50: > 100 µM (inactive)
DMS-114
  GI50: 25.1 µM (inactive)
DMS-273
  GI50: 97.7 µM (inactive)
EKVX
  GI50: > 100 µM (inactive)
HCT-116
  GI50: 44.4 µM (inactive)
HCT-15
  GI50: > 100 µM
HOP-18
  GI50: 52.5 µM (inactive)
HOP-92
  GI50: 29.6 µM (inactive)
HT-29
  GI50: 70.1 µM (inactive)
IGROV-1
  GI50: 90.8 µM (inactive)
K562
  GI50: 43.6 µM (inactive)
KM-20L2
  GI50: 93.8 µM (inactive)
KM12
  GI50: 60.3 µM (inactive)
LOX IMVI
  GI50: 94 µM (inactive)
LXFL 529
  GI50: 44.8 µM (inactive)
M14
  GI50: 48.9 µM (inactive)
M19-MEL
  GI50: 45.6 µM (inactive)
MOLT-4
  GI50: 33.3 µM (inactive)
Malme-3M
  GI50: > 100 µM (inactive)
NCI-H226
  GI50: 44.9 µM (inactive)
NCI-H23
  GI50: 64 µM (inactive)
NCI-H460
  GI50: > 100 µM (inactive)
NCI-H522
  GI50: 59.2 µM (inactive)
OVCAR-3
  GI50: > 100 µM (inactive)
OVCAR-4
  GI50: > 100 µM (inactive)
OVCAR-5
  GI50: > 100 µM (inactive)
OVCAR-8
  GI50: 57.9 µM (inactive)
RPMI-8226
  GI50: 36.9 µM (inactive)
RXF 393
  GI50: 68.4 µM (inactive)
SF-268
  GI50: 61.9 µM (inactive)
SF-295
  GI50: 90.2 µM (inactive)
SF-539
  GI50: > 100 µM (inactive)
SK-MEL-28
  GI50: > 100 µM (inactive)
SK-MEL-2
  GI50: > 100 µM (inactive)
SK-OV-3
  GI50: > 100 µM (inactive)
SN12C
  GI50: > 100 µM (inactive)
SNB-19
  GI50: > 100 µM (inactive)
SNB-75
  GI50: 51.2 µM (inactive)
SNB-78
  GI50: > 100 µM (inactive)
SW-620
  GI50: > 100 µM (inactive)
TK-10
  GI50: > 100 µM (inactive)
U-251
  GI50: > 100 µM (inactive)
UACC-257
  GI50: 37.1 µM (inactive)
UACC-62
  GI50: 56.1 µM (inactive)
UO-31
  GI50: 19.4 µM (inactive)
XF498
  GI50: 36.6 µM (inactive)
